# Tested on: Utrophin A promoter linked to a luciferase reporter gene (H2K/mdx/Utro A reporter cell line)
# Experiment: Luciferase reporter assay (murine H2K cells)
# Assay type: cell-based
# Conditions: Mus musculus; final concentration of 10 μM; incubated for a further 48 hrs
# Description: The cell line used for the screen is an immortalized mdx mouse H2K cell line that has been stably transfected with a plasmid containing ≈5 kb fragment of the Utrophin A promoter including the first untranslated […] linked to a luciferase reporter gene.
# Under conditions of low temperature and interferon containing media, the cells remain as myoblasts. These are plated into 96 well plates and cultured in the presence of compound for three days. The level of luciferase is then determined by cell lysis and reading of the light output from the expressed luciferase gene utilising a plate luminometer.
# The H2K/mdx/Utro A reporter cell line was passaged twice a week until ≦30% confluent. The cells were grown at 33° C. in the presence of 10% CO2
# To remove the myoblasts for platting, they were incubated with Trypsin/EDTA until the monolayer started to detach.
# • DMEM Gibco 41966 • 20% FCS • 1% Pen/Strep • 1% glutamine • 10 mls Chick embryo extract • Interferon(1276 905 Roche) Add fresh 10 μl/50 mls medium
# The H2K/mdx/Utro A reporter cell line cells were plated out into 96 well plates (Falcon 353296, white opaque) at a density of approximately 5000 cells/well in 190 μl normal growth medium. The plates were then incubated at 33° C. in the presence of 10% CO2 for 24 hrs.
# Compounds were dosed by adding 10 μl of diluted compound to each well giving a final concentration of 10 μM. The plates were then incubated for a further 48 hrs
# Cells were then lysed in situ following the manufacture's protocols (Promega Steady-Glo Luciferase Assay System (E2520). Then counted for 10 seconds using a plate luminometer (Victor1420).
row,Compound,activity at 10 µM
1,"Cc1cc2nn(-c3ccc(Cl)cc3)nc2cc1NC(=O)c1cccnc1 [Example 1, N-(2-(4-chlorophenyl)-6-methyl-2H-benzo[d][1,2,3]triazol-5-yl)nicotinamide]",301 to 400%
2,"Cc1cc2nn(-c3ccc(Cl)cc3)nc2cc1NC(=O)c1ccncc1 [Example 2, N-(2-(4-chlorophenyl)-6-methyl-2H-benzo[d][1,2,3]triazol-5-yl)isonicotinamide]",201 to 300%
3,"Cc1cc2nn(-c3ccc(Cl)cc3)nc2cc1NC(=O)c1ccccc1 [Example 3, N-(2-(4-chlorophenyl)-6-methyl-2H-benzo[d][1,2,3]triazol-5-yl)benzamide]",< 200%
4,"COc1ccc(C(=O)Nc2cc3nn(-c4ccc(Cl)cc4)nc3cc2C)cc1 [Example 4, N-(2-(4-chlorophenyl)-6-methyl-2H-benzo[d][1,2,3]triazol-5-yl)-4-methoxybenzamide]",201 to 300%
5,"COc1ccccc1C(=O)Nc1cc2nn(-c3ccc(Cl)cc3)nc2cc1C [Example 5, N-(2-(4-chlorophenyl)-6-methyl-2H-benzo[d][1,2,3]triazol-5-yl)-2-methoxybenzamide]",< 200%
6,"Cc1cc2nn(-c3ccc(Cl)cc3)nc2cc1NC(=O)c1cccs1 [Example 6, N-(2-(4-chlorophenyl)-6-methyl-2H-benzo[d][1,2,3]triazol-5-yl)thiophene-2-carboxamide]",301 to 400%
7,"CCC(=O)Nc1cc2nn(-c3ccc(Cl)cc3)nc2cc1C [Example 7, N-(2-(4-chlorophenyl)-6-methyl-2H-benzo[d][1,2,3]triazol-5-yl)propionamide]",< 200%
8,"CCCC(=O)Nc1cc2nn(-c3ccc(Cl)cc3)nc2cc1C [Example 8, N-(2-(4-chlorophenyl)-6-methyl-2H-benzo[d][1,2,3]triazol-5-yl)butyramide]",201 to 300%
9,"CCCCC(=O)Nc1cc2nn(-c3ccc(Cl)cc3)nc2cc1C [Example 9, N-(2-(4-chlorophenyl)-6-methyl-2H-benzo[d][1,2,3]triazol-5-yl)pentanamide]",201 to 300%
10,"Cc1cc2nn(-c3ccc(Cl)cc3)nc2cc1NC(=O)C(C)C [Example 10, N-(2-(4-chlorophenyl)-6-methyl-2H-benzo[d][1,2,3]triazol-5-yl)isobutyramide]",201 to 300%
11,"Cc1cc2nn(-c3ccc(Cl)cc3)nc2cc1NC(=O)c1ccco1 [Example 11, N-(2-(4-chlorophenyl)-6-methyl-2H-benzo[d][1,2,3]triazol-5-yl)furan-2-carboxamide]",201 to 300%
12,"CCN(CC)c1ccc(-n2nc3cc(C)c(NC(=O)c4cccnc4)cc3n2)cc1 [Example 12, N-(2-(4-(diethylamino)phenyl)-6-methyl-2H-benzo[d][1,2,3]triazol-5-yl)nicotinamide]",301 to 400%
13,"CCN(CC)c1ccc(-n2nc3cc(C)c(NC(=O)c4ccncc4)cc3n2)cc1 [Example 13, N-(2-(4-(diethylamino)phenyl)-6-methyl-2H-benzo[d][1,2,3]triazol-5-yl)isonicotinamide]",301 to 400%
14,"CCC(=O)Nc1cc2nn(-c3ccc(N(CC)CC)cc3)nc2cc1C [Example 14, N-(2-(4-(diethylamino)phenyl)-6-methyl-2H-benzo[d][1,2,3]triazol-5-yl)propionamide]",< 200%
15,"CCCC(=O)Nc1cc2nn(-c3ccc(N(CC)CC)cc3)nc2cc1C [Example 15, N-(2-(4-(diethylamino)phenyl)-6-methyl-2H-benzo[d][1,2,3]triazol-5-yl)butyramide]",< 200%
16,"CCCCC(=O)Nc1cc2nn(-c3ccc(N(CC)CC)cc3)nc2cc1C [Example 16, N-(2-(4-(diethylamino)phenyl)-6-methyl-2H-benzo[d][1,2,3]triazol-5-yl)pentanamide]",< 200%
17,"CCN(CC)c1ccc(-n2nc3cc(C)c(NC(=O)C(C)C)cc3n2)cc1 [Example 17, N-(2-(4-(diethylamino)phenyl)-6-methyl-2H-benzo[d][1,2,3]triazol-5-yl)isobutyramide]",< 200%
18,"CCN(CC)c1ccc(-n2nc3cc(C)c(NC(=O)c4ccco4)cc3n2)cc1 [Example 18, N-(2-(4-(diethylamino)phenyl)-6-methyl-2H-benzo[d][1,2,3]triazol-5-yl)furan-2-carboxamide]",< 200%
19,"CCN(CC)c1ccc(-n2nc3ccc(N)cc3n2)cc1 [Example 19, 2-(4-(diethylamino)phenyl)-2H-benzo[d][1,2,3]triazol-5-amine]",301 to 400%
20,"CCN(CC)c1ccc(-n2nc3ccc(NC(=O)c4cccnc4)cc3n2)cc1 [Example 20, N-(2-(4-(diethylamino)phenyl)-2H-benzo[d][1,2,3]triazol-5-yl)nicotinamide]",201 to 300%

row,Compound,activity at 10 µM
1,"CCN(CC)c1ccc(-n2nc3ccc(NC(=O)c4ccncc4)cc3n2)cc1 [Example 21, N-(2-(4-(diethylamino)phenyl)-2H-benzo[d][1,2,3]triazol-5-yl)isonicotinamide]",< 200%
2,"CCN(CC)c1ccc(-n2nc3ccc(NC(C)=O)cc3n2)cc1 [Example 22, N-(2-(4-(diethylamino)phenyl)-2H-benzo[d][1,2,3]triazol-5-yl)acetamide]",201 to 300%
3,"CCC(=O)Nc1ccc2nn(-c3ccc(N(CC)CC)cc3)nc2c1 [Example 23, N-(2-(4-(diethylamino)phenyl)-2H-benzo[d][1,2,3]triazol-5-yl)propionamide]",< 200%
4,"CCCC(=O)Nc1ccc2nn(-c3ccc(N(CC)CC)cc3)nc2c1 [Example 24, N-(2-(4-(diethylamino)phenyl)-2H-benzo[d][1,2,3]triazol-5-yl)butyramide]",< 200%
5,"CCCCC(=O)Nc1ccc2nn(-c3ccc(N(CC)CC)cc3)nc2c1 [Example 25, N-(2-(4-(diethylamino)phenyl)-2H-benzo[d][1,2,3]triazol-5-yl)pentanamide]",< 200%
6,"CCN(CC)c1ccc(-n2nc3ccc(NC(=O)C(C)C)cc3n2)cc1 [Example 26, N-(2-(4-(diethylamino)phenyl)-2H-benzo[d][1,2,3]triazol-5-yl)isobutyramide]",< 200%
7,"CCN(CC)c1ccc(-n2nc3ccc(NC(=O)c4ccco4)cc3n2)cc1 [Example 27, N-(2-(4-(diethylamino)phenyl)-2H-benzo[d][1,2,3]triazol-5-yl)furan-2-carboxamide]",< 200%
8,"CCN(CC)c1ccc(-n2nc3ccc(NC(=O)c4cccs4)cc3n2)cc1 [Example 28, N-(2-(4-(diethylamino)phenyl)-2H-benzo[d][1,2,3]triazol-5-yl)thiophene-2-carboxamide]",< 200%
9,"CCN(CC)c1ccc(-n2nc3ccc(NC(=O)c4ccccc4)cc3n2)cc1 [Example 29, N-(2-(4-(diethylamino)phenyl)-2H-benzo[d][1,2,3]triazol-5-yl)benzamide]",< 200%
10,"CCN(CC)c1ccc(-n2nc3ccc(NC(=O)c4ccc(OC)cc4)cc3n2)cc1 [Example 30, N-(2-(4-(diethylamino)phenyl)-2H-benzo[d][1,2,3]triazol-5-yl)-4-methoxybenzamide]",< 200%
11,"CCN(CC)c1ccc(-n2nc3ccc(NC(=O)c4ccccc4OC)cc3n2)cc1 [Example 31, N-(2-(4-(diethylamino)phenyl)-2H-benzo[d][1,2,3]triazol-5-yl)-2-methoxybenzamide]",< 200%
12,"CCN(CC)c1ccc(-n2nc3ccc(NC(=O)c4ccc(Cl)cc4)cc3n2)cc1 [Example 32, 4-chloro-N-(2-(4-(diethylamino)phenyl)-2H-benzo[d][1,2,3]triazol-5-yl)benzamide]",< 200%
13,"CCN(CC)c1ccc(-n2nc3ccc(NC(=O)c4ccc(N(C)C)cc4)cc3n2)cc1 [Example 33, N-(2-(4-(diethylamino)phenyl)-2H-benzo[d][1,2,3]triazol-5-yl)-4-(dimethylamino)benzamide]",< 200%
14,"Cc1cc2nn(-c3ccc(N4CCOCC4)cc3)nc2cc1N [Example 34, 6-methyl-2-(4-morpholinophenyl)-2H-benzo[d][1,2,3]triazol-5-amine]",201 to 300%
15,"CCC(=O)Nc1ccc2nn(-c3ccc(Cl)cc3)nc2c1 [Example 35, N-(2-(4-chlorophenyl)-2H-benzo[d][1,2,3]triazol-5-yl)propionamide]",> 401%
16,"CCCC(=O)Nc1ccc2nn(-c3ccc(Cl)cc3)nc2c1 [Example 36, N-(2-(4-chlorophenyl)-2H-benzo[d][1,2,3]triazol-5-yl)butyramide]",301 to 400%
17,"CC(C)C(=O)Nc1ccc2nn(-c3ccc(Cl)cc3)nc2c1 [Example 37, N-(2-(4-chlorophenyl)-2H-benzo[d][1,2,3]triazol-5-yl)isobutyramide]",> 401%
18,"Nc1ccc2nn(-c3ccc(Cl)cc3)nc2c1 [Example 38, 2-(4-chlorophenyl)-2H-benzo[d][1,2,3]triazol-5-amine]",< 200%
19,"CC(=O)Nc1ccc2nn(-c3ccc(Cl)cc3)nc2c1 [Example 39, N-(2-(4-chlorophenyl)-2H-benzo[d][1,2,3]triazol-5-yl)acetamide]",> 401%
20,"Nc1ccc2nn(-c3ccc(N4CCCCC4)cc3)nc2c1 [Example 40, 2-(4-(piperidin-1-yl)phenyl)-2H-benzo[d][1,2,3]triazol-5-amine]",201 to 300%

# Source: patent US20100168072A1, “Drug Combinations for the Treatment of Duchenne Muscular Dystrophy” (BIOMARIN IGA LIMITED, priority 2007, published 2010)
